In PubChem BioAssay AID2842 (Southern Research Institute, 2010):
In brackets after ≈: the same amount, converted by molar mass.

test system: M. tuberculosis H37Rv growth inhibition; assay: Mycobacterium tuberculosis H37Rv growth inhibition, putative kinase inhibitor library, confirmatory dose response (AID 2842);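 also: bacteria incubated one week before Alamar blue readout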

Structure (SMILES)	IC90 [µg/mL]
O=C1C(Cl)=C(Nc2ccccc2O)C(=O)N1Cc1ccccc1	5.45 (≈ 16.6 µM)
Cc1ccc(Nc2nc(Nc3cccc(F)c3)nc(N3CCOCC3)n2)cc1C	13.5 (≈ 34.2 µM)
Cc1ccc(-c2nnc(NC(=O)c3ccc([N+](=O)[O-])s3)o2)c(C)c1	0.61 (≈ 1.77 µM)
O=C(CCSc1ccccc1)Nc1nnc(-c2cccs2)o1	7.87 (≈ 23.7 µM)
O=C1CN(C(=O)c2cccc3ccccc23)C(c2ccccc2)c2cc(Br)ccc2N1 (stereo unspecified)	8.15 (≈ 17.3 µM)
CC(=O)Oc1cc(C)cc2oc(=O)c3c(c12)CCCC3	6.79 (≈ 24.9 µM)
Cc1cccc(N2CCN(C(=O)CCCCCn3c(=O)[nH]c4ccsc4c3=O)CC2)c1C	20.9 (≈ 46 µM)
Cc1ccc(C)c(C(=O)Nc2nnc(-c3cc(C)ccc3C)o2)c1	2.56 (≈ 7.97 µM)
COc1cc2c(=O)c(C(=O)c3ccc(Cl)cc3)cn(Cc3ccccc3F)c2cc1OC	45 (≈ 99.5 µM)
CC(=O)Nc1nnc(-c2cc(C)ccc2C)o1	20.2 (≈ 87.3 µM)
Oc1ccc(Nc2nc(NCc3ccccc3)c3ccccc3n2)cc1	2.59 (≈ 7.56 µM)
N#Cc1c(NC(=O)c2cc(Cl)ccc2Cl)sc2c1CCN(Cc1ccccc1)C2	12.3 (≈ 27.8 µM)
CCOC(=O)N1CCN(c2ncnc3c2cnn3-c2ccc(C)c(C)c2)CC1	9.11 (≈ 23.9 µM)
O=C(Nc1nnc(-c2ccc(Cl)s2)o1)c1ccc(Br)s1	11.6 (≈ 29.8 µM)
Cc1ccc2sc(N(CCN(C)C)C(=O)c3cccc4ccccc34)nc2c1C	11.8 (≈ 29.2 µM)
Cc1ccccc1C(=O)Nc1nnc(-c2ccc(F)cc2)o1	< 0.2
CCOC(=O)COc1ccc2c(C)c(-c3ccc(OC)c(OC)c3)c(=O)oc2c1	2.34 (≈ 5.87 µM)
CCCc1cc(-c2nc(N)ncc2-c2ccc3c(c2)OCO3)c(O)cc1OC	17.6 (≈ 46.4 µM)
CCOc1ccc2nc(N(CCCn3ccnc3)C(=O)c3cccs3)sc2c1	3.43 (≈ 8.31 µM)
COC(=O)CSc1ncnc2c1nnn2Cc1ccc(F)cc1	1.55 (≈ 4.65 µM)
O=C(Nc1nc(-c2ccc3c(c2)OCCO3)cs1)C1CCCCC1	11.7 (≈ 34 µM)
Cc1ccc(C)c2[nH]c(=O)c(CCNC(=S)NCCn3ccc4ccccc43)cc12	3.53 (≈ 8.43 µM)
COc1cc(C(=O)Nc2nnc(-c3ccc(C)cc3C)o2)cc(OC)c1OC	2.53 (≈ 6.6 µM)
CC(=O)Nc1ccc2nc(Nc3nc4ccc(C(C)C)cc4s3)sc2c1	2 (≈ 5.23 µM)

Structure (SMILES)	IC90 [µg/mL]
O=C(c1ccco1)N(CCCn1ccnc1)c1nc2c(F)cccc2s1	3.11 (≈ 8.4 µM)
Cc1ccc(NCCCn2c(C)c(C)n3c4c(=O)[nH]c(=O)n(C)c4nc23)c(C)c1	14.3 (≈ 36.2 µM)
COc1cccc(/C=N/Nc2nc(=O)[nH]nc2C)c1O	0.5 (≈ 1.82 µM)
O=C(Nc1nnc(C2=COCCO2)o1)c1ccc(F)cc1	2.21 (≈ 7.59 µM)
Cc1ccc(-c2nnc(NC(=O)c3ccccc3[N+](=O)[O-])o2)c(C)c1	15.7 (≈ 46.5 µM)
O=C(Nc1nnc(-c2ccc(Cl)s2)o1)c1nc2ccccc2s1	4.81 (≈ 13.3 µM)
CCN(CC)S(=O)(=O)c1ccc(C(=O)Nc2nnc(-c3cc(Cl)ccc3Cl)o2)cc1	7.57 (≈ 16.1 µM)
CCOC(CNc1ncnc2c1cnn2-c1ccc(C)c(C)c1)OCC	21.8 (≈ 61.4 µM)
O=C(Nc1nnc(-c2ccc(Br)cc2)o1)c1ccc2c(c1)CCCC2	16.8 (≈ 42.1 µM)
O=C(Nc1nnc(-c2ccc(F)cc2)o1)c1ccc(Cl)cc1	18.3 (≈ 57.5 µM)
Cc1ccc(C)c(-c2csc(NC(=O)c3ccc([N+](=O)[O-])s3)n2)c1	3.37 (≈ 9.38 µM)
COc1ccc(-c2nnc3c4cc(OC)c(OC)cc4n(Cc4ccccc4OC)cc2-3)cc1	5.67 (≈ 12.4 µM)
CC(C)(C)c1ccc(C(=O)Nc2nnc(-c3ccncc3)o2)cc1	1.18 (≈ 3.66 µM)
CCCCCOc1ccc(C(=O)Nc2nnc(-c3ccccn3)o2)cc1	2.15 (≈ 6.1 µM)
COc1cc(/C=C(\C#N)c2nc(-c3ccccc3)cs2)cc([N+](=O)[O-])c1O	54.6 (≈ 144 µM)
Cc1ccc(C)c(-c2nnc(NC(=O)c3ccccc3[N+](=O)[O-])o2)c1	4.88 (≈ 14.4 µM)
COC(=O)c1ccc(NC(=O)CSc2nc(-c3ccc(C)cc3)ns2)cc1	21.3 (≈ 53.4 µM)
O=C(Nc1ncc(Cc2ccccc2Cl)s1)c1cccs1	18.3 (≈ 54.5 µM)
Cc1ccc(Cn2cc3c(-c4ccc(C)c(C)c4)nnc-3c3cc4c(cc32)OCCO4)cc1	11.5 (≈ 26.5 µM)
O=c1c2[nH]c3ccccc3c2nc(SCCN2CCCCC2)n1-c1ccccc1F	14.6 (≈ 34.6 µM)
COc1ccc(C(=O)Nc2nc3c(s2)CCCC3)c(OC)c1	6.13 (≈ 19.3 µM)
O=[N+]([O-])c1cccc(-c2ccc(/C=N/O)o2)c1	11.9 (≈ 51.1 µM)
CCOC(=O)C(C)Sc1ncnc2c1cnn2-c1ccc(F)cc1 (stereo unspecified)	4.73 (≈ 13.7 µM)
O=C(CCSc1ccccc1)Nc1nnc(-c2ccc3c(c2)CCCC3)o1	1.93 (≈ 5.09 µM)

Structure (SMILES)	IC90 [µg/mL]
O=C(Nc1nnc(-c2ccccc2Cl)o1)c1nc2ccccc2s1	1.75 (≈ 4.9 µM)
Cc1ccc(-c2nnc(NC(=O)c3c(F)cccc3F)o2)c(C)c1	1.25 (≈ 3.8 µM)
O=C1CN(C(=O)c2cc(Br)ccc2Cl)C(c2ccccc2)c2cc(F)ccc2N1 (stereo unspecified)	26.1 (≈ 55 µM)
O=C(OCn1nnc2ccccc2c1=O)c1ccco1	4.76 (≈ 17.5 µM)
O=C1N/C(=N\N=C\c2ccccc2O)SC1Cc1ccc(Br)cc1 (stereo unspecified)	1.14 (≈ 2.82 µM)
Cc1ccc(C)c(-c2nnc(NC(=O)c3cccc(F)c3)o2)c1	30.9 (≈ 99.2 µM)
CCOc1ccc2nc(Nc3nc4c(OC)cccc4s3)sc2c1	3.75 (≈ 10.5 µM)
Cc1ccc2nc(NNC(=O)c3cccc(F)c3)sc2c1	7.65 (≈ 25.4 µM)
O=C(CSc1nnc(-c2cccnc2)o1)N1CCC(Cc2ccccc2)CC1	0.87 (≈ 2.21 µM)
CCCCC(=O)Nc1nnc(-c2ccc(Br)cc2)o1	2.3 (≈ 7.09 µM)
CN(C)S(=O)(=O)c1ccc(C(=O)Nc2nnc(-c3cc(Cl)ccc3Cl)o2)cc1	3.89 (≈ 8.81 µM)
O=C(/C=C/c1ccccc1)Nc1nnc(-c2ccc3c(c2)CCCC3)o1	1.67 (≈ 4.83 µM)
O=C(CCc1ccccc1)Nc1nnc(-c2cc(Cl)ccc2Cl)o1	26.6 (≈ 73.4 µM)
COc1ccccc1C(=O)Nc1nnc(-c2ccccc2Cl)o1	3.23 (≈ 9.8 µM)
COc1ccccc1C(=O)Nc1nnc(-c2ccc(Cl)cc2)o1	3.86 (≈ 11.7 µM)
Cc1ccc(N=Nc2c(C)[nH][nH]c2=O)cc1	10.1 (≈ 46.6 µM)
O=C(CCOc1ccccc1)Nc1nnc(-c2ccccc2)o1	6.68 (≈ 21.6 µM)
COc1cccc(-c2nnc(NC(=O)c3ccccc3Cl)o2)c1	2.69 (≈ 8.16 µM)
O=C(Nc1nnc(-c2ccccc2Cl)o1)c1cccc(Oc2ccccc2)c1	0.86 (≈ 2.19 µM)
COc1ccc2nc(N=Nc3c(C)[nH]n(-c4ccccc4)c3=O)sc2c1	7.7 (≈ 21.1 µM)
CC(C)(C)C(=O)Nc1nnc(-c2ccc(Br)cc2)o1	< 0.2
CCOc1ccc2nc(N(CCCn3ccnc3)C(=O)Cc3ccc(F)cc3)sc2c1	3.05 (≈ 6.96 µM)
COc1cccc(-c2csc(NC(=O)C3CCCCC3)n2)c1	19.8 (≈ 62.6 µM)
CCC(=O)Nc1nnc(-c2ccc(C)cc2C)o1	< 0.2

Structure (SMILES)	IC90 [µg/mL]
COC(=O)c1c(NC(=O)c2ccccc2Oc2ccccc2)sc2c1CC(C)(C)NC2(C)C	37.1 (≈ 79.8 µM)
N#Cc1ccc(C(=O)Nc2nnc(-c3ccc(Cl)cc3)o2)cc1	56.7 (≈ 174 µM)
COc1ccccc1Cn1cc2c(-c3ccccc3)nnc-2c2cc(OC)c(OC)cc21	7.59 (≈ 17.8 µM)
O=C(Cc1cccc2ccccc12)Nc1nnc(-c2ccco2)o1	6.89 (≈ 21.6 µM)
CCOC(=O)N1CCc2c(sc(NC(=O)c3ccco3)c2-c2nc3ccccc3s2)C1	50.2 (≈ 111 µM)
COc1ccc(C)c2sc(NNC(=O)c3ccccc3)nc12	4.03 (≈ 12.9 µM)
O=C(CSc1ncnc2c1oc1ccccc12)OCc1ccccc1	12.1 (≈ 34.6 µM)
Cc1ccc(-c2nnc(NC(=O)c3ccccc3F)o2)c(C)c1	1.31 (≈ 4.21 µM)
CCOc1ccc2c(c1)c1nnc(-c3ccc(OC)cc3)c-1cn2Cc1cccc(C)c1	20.7 (≈ 48.9 µM)
COc1ccc(Cl)c2sc(N(CCCn3ccnc3)C(=O)Cc3ccccc3)nc12	1.65 (≈ 3.74 µM)
O=C(CSc1c[nH]c2ccccc12)Nc1ccc(Br)cc1	3.2 (≈ 8.86 µM)
O=C(Cc1ccccc1)Nc1nnc(-c2ccc3c(c2)CCCC3)o1	55.8 (≈ 167 µM)
COc1ccc(C(=O)N(CCCn2ccnc2)c2nc3c(C)ccc(C)c3s2)cc1OC	17 (≈ 37.7 µM)
CC(=O)c1ccc(C(=O)Nc2nnc(-c3cc(Cl)ccc3Cl)o2)cc1	94.4 (≈ 251 µM)
CSc1nnc(C)c(=O)n1COC(=O)/C=C/c1ccc2c(c1)OCO2	11.2 (≈ 31 µM)
COC(=O)CSc1ncnc2c1cnn2-c1ccc(F)cc1	4.54 (≈ 14.3 µM)
O=Nc1c(-c2ccccc2)cc2ccccn12	3.32 (≈ 14.9 µM)
O=C(NNc1nc2c(F)cccc2s1)c1cc2ccccc2oc1=O	8.19 (≈ 23 µM)
COc1cccc2sc(Nc3nc4ccc(Cl)cc4s3)nc12	13.9 (≈ 40 µM)
c1ccc2c(c1)CCN(c1nc3cc4c(cc3s1)OCCO4)C2	16 (≈ 49.4 µM)
CCc1ccc2nc(Nc3nc4ccc(S(C)(=O)=O)cc4s3)sc2c1	7.52 (≈ 19.3 µM)
Cc1cn2c3c(=O)[nH]c(=O)n(C)c3nc2n1CCCN(C)Cc1ccccc1	2.62 (≈ 6.89 µM)
O=C(CCc1ccccc1)Nc1nnc(-c2cccs2)o1	42.8 (≈ 143 µM)
Cc1ccc2cc(CCNC(=S)NCCn3ccc4ccccc43)c(=O)[nH]c2c1	1.26 (≈ 3.11 µM)

Structure (SMILES)	IC90 [µg/mL]
CCOC(=O)C(C)Sc1ncnc2c1nnn2Cc1ccc(F)cc1 (stereo unspecified)	0.51 (≈ 1.41 µM)
O=C(c1cccs1)N(CCCn1ccnc1)c1nc2ccccc2s1	6 (≈ 16.3 µM)
Cc1ccc2sc(N(CCCn3ccnc3)C(=O)c3cccs3)nc2c1C	0.54 (≈ 1.36 µM)
Cc1ccc(C)c(-c2nnc(NC(=O)c3ccc(Cl)s3)o2)c1	26.4 (≈ 79.2 µM)
CC(=O)N1CCc2c(sc(NC(=O)c3ccccc3Oc3ccccc3)c2C(N)=O)C1	18.3 (≈ 42 µM)
Cc1ccc(C)c(-c2nnc(NC(=O)c3ccc(S(=O)(=O)N(C)C4CCCCC4)cc3)o2)c1	58.3 (≈ 124 µM)
COc1ccccc1-c1nnc(Nc2nc3ccc(SC)cc3s2)o1	15.9 (≈ 42.9 µM)
Cc1ccc(C)c(-c2nnc(NC(=O)C3COc4ccccc4O3)o2)c1 (stereo unspecified)	1.18 (≈ 3.36 µM)
Cc1ccc(-n2ncc3c(NCc4cccnc4)ncnc32)cc1C	6.03 (≈ 18.3 µM)
O=C(Nc1nnc(-c2ccc3c(c2)CCCC3)o1)c1ccccc1	7.25 (≈ 22.7 µM)
CC(C)C(=O)Nc1nnc(-c2ccc(Br)cc2)o1	1.24 (≈ 4 µM)
O=C1NC(=S)NC(=O)C1=Cc1nc(-c2ccccc2Cl)n2ccccc12	10.8 (≈ 28.2 µM)
CN1CCc2c(sc(NC(=O)c3ccc([N+](=O)[O-])o3)c2C(N)=O)C1	10.5 (≈ 30.1 µM)
Cc1ccc(-c2nnc(NC(=O)c3ccc(F)cc3)o2)c(C)c1	26.3 (≈ 84.5 µM)
O=C(Nc1nnc(-c2ccc(Cl)cc2)o1)c1ccccc1Br	2.46 (≈ 6.5 µM)
O=C(Nc1nnc(-c2ccco2)o1)C1=COCCO1	50.9 (≈ 193 µM)
COc1cc(/C=C(\C#N)c2nc(-c3ccc(C)cc3)cs2)cc([N+](=O)[O-])c1O	3.26 (≈ 8.29 µM)
COc1ccccc1Cn1cc2c(-c3ccc(F)cc3)nnc-2c2cc(OC)c(OC)cc21	22 (≈ 49.7 µM)
O=C(c1cccs1)N(CCCn1ccnc1)c1nc2c(Cl)cccc2s1	5.18 (≈ 12.9 µM)
CS(=O)(=O)c1ccc(-c2nnc(NC(=O)c3ccc(Cl)s3)o2)cc1	1.67 (≈ 4.35 µM)
